Results reported in patent US20070212355A1 (priority 2005, published 2007).
Each block holds one molecule with its values, some of them ahead of it.

Experiments:
mutated human GLP-2R = molecular target: T1, mutated human GLP-2R (Homo sapiens, UniProt O95838, E512D/G511A/L513V); experiment: cAMP expression assay in HEK 293E clonal cell line expressing mutated human GLP-2R; type: cell-based; conditions: Table 2; mimetibodies with Pro substitution; read-out: EC50
T1 construct: expressed in transfected cells; host or cells: HEK 293E clonal cell line
T1 sequence (O95838 1-553 G511A/E512D/L513V): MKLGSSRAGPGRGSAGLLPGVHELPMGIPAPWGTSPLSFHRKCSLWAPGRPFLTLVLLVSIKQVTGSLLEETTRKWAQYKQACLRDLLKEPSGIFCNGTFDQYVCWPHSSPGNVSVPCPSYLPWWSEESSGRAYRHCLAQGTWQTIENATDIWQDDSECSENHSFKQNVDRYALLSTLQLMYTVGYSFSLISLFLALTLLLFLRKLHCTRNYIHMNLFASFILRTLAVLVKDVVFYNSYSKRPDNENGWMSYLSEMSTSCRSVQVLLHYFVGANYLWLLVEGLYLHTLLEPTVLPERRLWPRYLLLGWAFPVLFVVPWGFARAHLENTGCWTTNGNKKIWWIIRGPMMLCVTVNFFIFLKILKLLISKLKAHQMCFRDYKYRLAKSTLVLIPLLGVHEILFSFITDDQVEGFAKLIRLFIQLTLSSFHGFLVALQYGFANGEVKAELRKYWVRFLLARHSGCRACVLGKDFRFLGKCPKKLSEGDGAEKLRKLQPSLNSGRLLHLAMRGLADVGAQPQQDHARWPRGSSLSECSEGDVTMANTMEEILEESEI
Text: To achieve this goal, a clonal cell line expressing a mutated human GLP-2R was generated by transfecting HEK 293E cells. The mutated human GLP-2R differs from the wild-type human GLP-2R (SEQ ID NO: 35) at three amino acid positions within the C-terminal intracellular region (SEQ ID NO: 36).
The cAMP expression was quantitated using the cAMP Direct Screen System (Cat. No. CSD 200, Applied Biosystems, Bedford, Mass.).
This assay was based on the cAMP Direct Screen System from Applied Biosystems utilizing a cell line expressing mutated huGLP-2R in HEK 293E cells. Peptide at concentrations ranging from 0.01 nM to 1.0 uM in PBS with 0.5% BSA was added to ˜50,000 cells suspended in 96-well plates. After a 30-minute incubation at 37° C., Lysis Buffer followed by luminescence reagents (Applied Biosystems) was added according to the manufacturers' procedures (Applied Biosystems Luminescence protocol: cAMP-Screen Direct System). Luminescence was quantitated using a TopCount liquid scintillation analyzer (PerkinElmer), and data was processed using Softmax software (Molecular Devices Corporation).

[1] = Incubation with U937 cell lysate, SDS-PAGE (proteolysis resistance); type: in vitro ADME; conditions: 0, 12, 24 hours; in comparison with A2G GLP-2 mimetibody (SEQ ID NO: 5); FIG. 1
Protocol: The purified Pro substitution variants were incubated with U937 cell lysate in the presence of CompleteMini protease inhibitor tablets (Cat. No. 1 836 153, Roche Applied Science, Indianapolis, Ind.) for 0, 12, or 24 hours. Afterwards, GLP-2 mimetibody variants were purified using Protein A beads and resolved on a SDS-PAGE gel.

[2] = Helical propensity analysis using TFE (CD at 222 nm); type: physicochemical; conditions: 0.2 mg/mL in PBS (pH 7.5), MRE at 222 nm
Protocol: In addition, trifluoroethanol (TFE) is known to induce helix formation in peptides (Soennichsen et al., Biochemistry 31: 8791 (1992)). Accordingly, helical propensity analysis using TFE was performed. Briefly, tested peptides were diluted to 0.2 mg/mL in PBS (pH 7.5) containing 0, 1, 5, 15, 33 or 50% TFE. CD spectra were collected and CD plots were generated after data averaging, buffer subtraction and curve smoothing. Helical propensity values were obtained from mean residue ellipticity (MRE) at 222 nm versus % TFE plots. The concentration of TFE that effected a 50% transformation of the CD spectrum at 222 nm was used as a measure of helical propensity.

[3] = CD spectra secondary structure of peptides; type: physicochemical; conditions: 0.2 mg/mL in PBS, 25° C.
Protocol: The secondary structures of tested peptides were determined using 0.2 mg/mL peptide solutions in PBS. Briefly, CD spectra were collected in triplicate at 1 nm intervals at 25° C. in 0.1 cm path length cell. Secondary structures were determined by fitting of the CD spectra using CD spectra software (CD Spectra Deconvolution software 2.1). All tested peptides contained peaks corresponding to the presence of alpha helices.

mice = experiment: Upper gastrointestinal transit, carmine dye technique, normal mice; type: in vivo; conditions: 50 μg/mouse daily s.c. 10 days, 20-minute test period, vs PBS vehicle, FIG. 3
Protocol: To test the effects of A2G-GLP-2 on upper gastrointestinal transit in normal mice, mice were randomly assigned to 2 groups (14 animals per test group). Each group received daily subcutaneous injection (total volume […]) of either A2G-GLP-2 peptide (50 μg/mouse) or the phosphate-buffered saline vehicle for 10 consecutive days.
On the day of study, upper gastrointestinal transit was measured using the carmine dye technique. Mice were fed a test meal of 0.25 ml of a 6% (w/v) solution of carmine cochineal powder mixed into 0.5% (w/v) methylcellulose administered intragastrically by an 18 gauge curved feeding tube. Following oral test meal administration, mice were replaced into their home cages. Twenty minutes after marker meal administration, mice were rapidly euthanized by cervical dislocation and the entire gastrointestinal tract was excised starting from the distal colon and working towards the gastric pylorus. […] The linear distance traversed by the carmine dye front through the small intestine was measured together with the total length of the small bowel. Upper gastrointestinal transit was expressed as the percentage of the entire small intestine traversed by the carmine dye front during the 20-minute test period: % small intestine traveled =[distance traversed by dye front through small intestine (cm)/entire small intestine length (cm)×100].

[4] = SEC-SLS self-association of peptides in PBS (pH 7.5); type: physicochemical; conditions: 1 mg/ml
Protocol: The self-association poses a challenge to the development and manufacturing of a homogeneous therapeutic.
(§1) Solution molecular weight of the peptides was measured by SEC-SLS. Briefly, peptide solutions in PBS (pH 7.5) at 0.4 to 2.0 mg/mL were fractionated over a Superdex peptide column (Amersham Pharmacia). The eluted peaks were monitored by static light scattering at 690 nm and solution molecular weight was determined at UV 280 nm using the Astra software package (Wyatt Inc.).

CD1 mice = experiment: Mucosal wet weight of small intestine after 10 daily subcutaneous injections; type: in vivo; conditions: 2.5 mg/kg (13.3 nmole) daily s.c. 10 days; p<0.0001
Text: Afterwards, the mice were euthanized and the small intestines were removed, flushed with saline, and processed as described below.
Specifically, 4 cm sections were harvested: (1) immediately distal to the pylorus (duodenum), (2) starting 2 cm distal of the ligament of Treitz (jejunum), and (3) immediately proximal to the cecum (ileum). The remaining small intestine from ˜6 cm distal of the ligament of Treitz to 4 cm proximal to the cecum was used to prepare mucosal scrapings. From the proximal and distal ends of the remnant, an equal distance was removed until a 15 cm section remained, the remnant was cut longitudinally, rinsed, and the mucosal layer was removed using the short end of a glass microscope slide. The wet weight of the intact intestinal segments and mucosa was measured.

[5] = background statement; cited from earlier work
[6] = SEC-SLS analysis of mimetibodies (monomer/dimer); type: physicochemical; conditions: purified from HEK 293E/HEK 293 expression
[7] = molecular target: the molecule itself; experiment: SEC-SLS, self-association at 1 mg/ml in PBS pH 7.5
Protocol: as §1

EC50 (mutated human GLP-2R): 7.7 nM
Molecule: SEQ ID NO: 44: GLP-2 mimetibody Pro substitution variant; core HGDGSFSDEMNTILDNLAARDFINWLIQTKITDGSGGGSGALVAVSPESKYGPPCPPCP (Mimetibody)
degradation after incubation with U937 cell lysate [1]: less degradation

TFE required for helical transformation (helical propensity) [2]: ~16 % TFE
Helix (percentage of helical structure) [3]: 20.7%
Random coil (percentage) [3]: 37.1%
SEC-SLS elution / self-association state [4]: overlapping dimer and monomer peaks
Molecule: CC[C@H](C)[C@H](NC(=O)[C@H](Cc1ccccc1)NC(=O)[C@H](CC(=O)O)NC(=O)[C@H](CCCNC(=N)N)NC(=O)[C@H](C)NC(=O)[C@H](C)NC(=O)[C@H](CC(C)C)NC(=O)[C@H](CC(N)=O)NC(=O)[C@H](CC(=O)O)NC(=O)[C@H](CC(C)C)NC(=O)[C@@H](NC(=O)[C@@H](NC(=O)[C@H](CC(N)=O)NC(=O)[C@H](CCSC)NC(=O)[C@H](CCC(=O)O)NC(=O)[C@H](CC(=O)O)NC(=O)[C@H](CO)NC(=O)[C@H](Cc1ccccc1)NC(=O)[C@H](CO)NC(=O)CNC(=O)[C@H](CC(=O)O)NC(=O)CNC(=O)[C@@H](N)Cc1c[nH]cn1)[C@@H](C)O)[C@@H](C)CC)C(=O)N[C@@H](CC(N)=O)C(=O)N[C@@H](Cc1c[nH]c2ccccc12)C(=O)N[C@@H](CC(C)C)C(=O)N[C@H](C(=O)N[C@@H](CCC(N)=O)C(=O)N[C@H](C(=O)N[C@@H](CCCCN)C(=O)N[C@H](C(=O)N[C@H](C(=O)N[C@@H](CC(=O)O)C(=O)O)[C@@H](C)O)[C@@H](C)CC)[C@@H](C)O)[C@@H](C)CC [SEQ ID NO: 3]
upper gastrointestinal transit (% small intestine traveled by carmine dye front) (mice; listed as A2G-GLP-2): acceleration of upper gastrointestinal transit
upper gastrointestinal transit (% small intestine traveled by carmine dye front) (mice; listed as A2G-GLP-2 peptide): significant acceleration of intestinal transit
increase in mucosal wet weight (CD1 mice): statistically significant increase

Molecule: CC[C@H](C)[C@H](NC(=O)[C@H](Cc1ccccc1)NC(=O)[C@H](CC(=O)O)NC(=O)[C@H](CCCNC(=N)N)NC(=O)[C@H](C)NC(=O)[C@H](C)NC(=O)[C@H](CC(C)C)NC(=O)[C@H](CC(N)=O)NC(=O)[C@H](CC(=O)O)NC(=O)[C@H](CC(C)C)NC(=O)[C@@H](NC(=O)[C@@H](NC(=O)[C@H](CC(N)=O)NC(=O)[C@H](CCSC)NC(=O)[C@H](CCC(=O)O)NC(=O)[C@H](CC(=O)O)NC(=O)[C@H](CO)NC(=O)[C@H](Cc1ccccc1)NC(=O)[C@H](CO)NC(=O)CNC(=O)[C@H](CC(=O)O)NC(=O)CNC(=O)[C@@H](N)Cc1c[nH]cn1)[C@@H](C)O)[C@@H](C)CC)C(=O)N[C@@H](CC(N)=O)C(=O)N[C@@H](Cc1c[nH]c2ccccc12)C(=O)N[C@@H](CC(C)C)C(=O)N[C@H](C(=O)N[C@@H](CCC(N)=O)C(=O)N[C@H](C(=O)N[C@@H](CCCCN)C(=O)N[C@H](C(=O)N[C@H](C(=O)N[C@@H](CC(=O)O)C(=O)O)[C@@H](C)O)[C@@H](C)CC)[C@@H](C)O)[C@@H](C)CC [teduglutide]
half-life [5]: less than 30 minutes

EC50 (mutated human GLP-2R): 4.8 nM
Molecule: SEQ ID NO: 43: GLP-2 mimetibody Pro substitution variant; core HGDGSFSDEMNTILDNLAARDFINWLIQTKITDGSGGGSGALVAVPSESKYGPPCPPCP (Mimetibody)
degradation after incubation with U937 cell lysate [1]: less degradation

B1: SEQ ID NO: 4: A2S GLP-2 mimetibody, IgG4 Hg-CH2-CH3 with S228P and P234A/L235A (protein)
chain: HSDGSFSDEMNTILDNLAARDFINWLIQTKITDGSGGGSGTLVTVSSESKYGPPCPPCPAPEAAGGPSVFLFPPKPDTLMISRTPEVTCVVVDVSQEDPEVQFNWYVDGVEVHNAKTKPREEQFNSTYRVVSVLTVLHQDWLNGKEYKCKVSNKGLPSSIEKTISKAKGQPREPQVYTLPPSQEEMTKNQVSLTCLVKGFYPSDIAVEWESNGQPENNYKTTPPVLDSDGSFFLYSRLTVDKSRWQEGNVFSCSVMHEALHNHYTQKSLSLSLGK
modifications: Mimetibody
SEC-SLS association state of mimetibody [6]: dimer

B2: A2G GLP-2 peptide (peptide)
peptide: HGDGSFSDEMNTILDNLAARDFINWLIQTKITD
notes: Analog of human GLP-2 with Ala2 changed to Gly; also called A2G peptide; GLP-2(A2G)
binding result [7]: binds
